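Protocol summary: plate cells (96-well), add compound at 5 concentrations, incubate 48 h, interpolate endpoints linearly. GI50: concentration for 50% inhibition of growth.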 The source made the active and inactive calls. No stated cut-off is given here; in the data, active = GI50 up to about 1.1 µM and inactive = higher. Bounds are passed on as bounds.

Holding throughout (test): DTP human tumour cell line panel, 48 h
Experiment [1] deals with HL-60.
Experiment [2] concerns SK-OV-3.
Experiment [3] relates to U-251.
Experiment [4] has as its system NCI-H226.
Experiment [5] has as its system K562.
Experiment [6] deals with SNB-19.
For experiment [7], the system named is M14.
The test system of experiment [8] is OVCAR-8.
For experiment [9], the system named is SF-268.
Experiment [10] concerns RXF 393.
Experiment [11] concerns A549.
Experiment [12] deals with SK-MEL-28.
Experiment [13] has as its system M19-MEL.
Experiment [14] has as its system UACC-257.
Experiment [15] relates to 786-0.
Experiment [16] has as its system OVCAR-5.
In experiment [17] the test system is CAKI-1.

Broadly, the GI50 is the concentration giving 50% growth inhibition. `Cc1nc2c(n1C(C)(C)C)C(=O)c1ccccc1C2=O`: the GI50 was 46.2 µM (inactive) in [1]; > 100 µM (inactive) in [2]; 84.5 µM (inactive) in experiment [3]; 67.9 µM (inactive) in experiment [4]; 49.7 µM (inactive) in experiment [5]; > 100 µM (inactive) in experiment [6]. Moreover, the GI50 was > 100 µM (inactive) in experiment [7]; 56.8 µM (inactive) in experiment [8]; 54.5 µM (inactive) in [9]; > 100 µM (inactive) in experiment [10]; 92 µM (inactive) in [11]; > 100 µM (inactive) in [12]. For the same molecule, the GI50 in experiment [13] is 24.8 µM (inactive); in [14], 42.6 µM (inactive); in experiment [15], > 100 µM (inactive).

Regarding `CC1=CC(C)(c2c[nH]c3ccccc23)CC(C)(C)c2c1[nH]c1ccccc21` (centres undefined), the GI50 in experiment [1] is 6.46 µM (inactive); in experiment [2] it was 28.6 µM (inactive); in [3], 15.9 µM (inactive); in [4], 18.6 µM (inactive); in experiment [5], 11.9 µM (inactive); in [6], 26.5 µM (inactive). Also, the GI50 in experiment [7] is 17.9 µM (inactive); in [16], 18 µM (inactive); in experiment [8], 13.7 µM (inactive); in experiment [9], 25.1 µM (inactive); in experiment [10], 12.4 µM (inactive); in experiment [11], 14 µM (inactive). For the same molecule, the GI50 was 14.5 µM (inactive) in experiment [12], 19.7 µM (inactive) in experiment [13], 20.3 µM (inactive) in experiment [14] and 13.8 µM (inactive) in experiment [15].

Turning to `O/N=C1/C(=C/c2ccccc2)CCCC1C(NO)c1ccccc1` (centres undefined), the GI50 in experiment [1] was 2.29 µM (inactive); in experiment [2], > 100 µM (inactive); in experiment [3], > 10 µM (inactive); in experiment [5], 3.31 µM (inactive); in experiment [6] it was 91.4 µM (inactive); in experiment [7], 84.9 µM (inactive). Besides, the GI50 was > 100 µM (inactive) in experiment [16]; 64 µM (inactive) in experiment [8]; 55.7 µM (inactive) in experiment [9]; 34.8 µM (inactive) in [10]; 40.1 µM (inactive) in experiment [11]; > 100 µM (inactive) in experiment [12]. Besides, the GI50 in experiment [13] is 68.4 µM (inactive); in experiment [14], 38.5 µM (inactive); in [15] it was > 100 µM (inactive).

As to `O=C1c2ccccc2C(=O)c2c1ccc1c3ccccc3n(Cc3ccccc3)c21`, the GI50 in experiment [1] was > 100 µM (inactive); in experiment [2], > 100 µM (inactive); in experiment [4], 54.6 µM (inactive); in [5], > 100 µM (inactive); in experiment [7], > 100 µM (inactive); in [16] it was > 100 µM (inactive). Further, the GI50 in experiment [8] was > 100 µM (inactive); in experiment [9], > 100 µM (inactive); in experiment [11], > 100 µM (inactive); in experiment [13] it was 88.7 µM (inactive); in experiment [17] it was > 100 µM (inactive); in experiment [15], > 100 µM (inactive).

For the molecule `COc1ccc(C)cc1-c1cc(Sc2ccccc2)c(-c2cc(C)ccc2OC)o1`, the GI50 in [1], in [2], in experiment [3], in experiment [4], in [5] and in experiment [6] was > 31.6 µM (inactive) in each case. Moreover, the GI50 in experiment [7] was > 31.6 µM (inactive); in experiment [16] it was > 100 µM (inactive); in experiment [8], > 31.6 µM (inactive); in experiment [9], > 31.6 µM (inactive); in experiment [11] it was > 31.6 µM (inactive); in experiment [12] it was > 31.6 µM (inactive). Further, the GI50 in [13], in experiment [14], in [17] and in experiment [15] was > 31.6 µM (inactive) each time.

Take `O=c1[nH]c(-c2ccc(-c3nc4cc([N+](=O)[O-])ccc4c(=O)[nH]3)cc2)nc2cc([N+](=O)[O-])ccc12`: the GI50 in [1], in experiment [2], in [3], in experiment [4], in [5] and in [6] was > 100 µM (inactive) throughout. Also, the GI50 in [7], in experiment [16], in experiment [8], in experiment [10], in experiment [11] and in [12] was > 100 µM (inactive) in each case. Further, the GI50 in [13] is > 100 µM (inactive); in experiment [14], > 100 µM (inactive); in experiment [17], > 100 µM (inactive); in experiment [15] it was 72.9 µM (inactive).

Regarding `CC(C)[C@H]1CO[C@]2(C)[C@@H]3CN(Cc4ccccc4)C[C@@H]3C(=O)N12`, the GI50 in experiment [1], in experiment [2], in experiment [3], in experiment [4], in [5] and in experiment [6] was > 100 µM (inactive) each time. Besides, the GI50 in [7], in experiment [8], in experiment [9], in experiment [10], in [11] and in [12] was > 100 µM (inactive) throughout. Also, the GI50 in [13], in [14], in experiment [17] and in experiment [15] was > 100 µM (inactive) in each case.

Consider `COc1cc(Nc2nc3cc(C)ccc3nc2-c2ccccc2)cc(OC)c1OC`, for which the GI50 was 22.5 µM (inactive) in experiment [1]; > 100 µM (inactive) in [2]; 35 µM (inactive) in experiment [3]; 23.4 µM (inactive) in experiment [5]; 57.4 µM (inactive) in experiment [6]; 29.3 µM (inactive) in experiment [7]. For the same molecule, the GI50 in [16] is > 100 µM (inactive); in experiment [8] it was 36.5 µM (inactive); in experiment [9], 11.2 µM (inactive); in experiment [11] it was 29.8 µM (inactive); in experiment [12] it was 16.6 µM (inactive); in [13] it was 24.2 µM (inactive). Further, the GI50 in experiment [14] was 47.5 µM (inactive); in experiment [17] it was 27.5 µM (inactive); in experiment [15] it was 14.7 µM (inactive).

For `O=C(OCc1ccccc1)N1N=NC2C1C1CC(OCc3ccccc3)(OCc3ccccc3)C2O1` (centres undefined), the GI50 in experiment [1], in experiment [2], in experiment [3], in [4], in experiment [5] and in experiment [7] was > 100 µM (inactive) each time. In addition, the GI50 in experiment [16], in [9], in experiment [10], in [11], in experiment [12] and in experiment [13] was > 100 µM (inactive) throughout. Further, the GI50 in [14], in experiment [17] and in [15] was > 100 µM (inactive) throughout.

`COC(=O)n1c(C[P+](c2ccccc2)(c2ccccc2)c2ccccc2)cc2ccccc21`: the GI50 in [1] is 0.869 µM (active); in experiment [2], 0.652 µM (active); in experiment [3], 2.81 µM (inactive); in experiment [4], 1.73 µM (inactive); in [5] it was 0.438 µM (active); in experiment [6], 1.31 µM (inactive). The GI50 was 1.13 µM (inactive) in [7]; 2.11 µM (inactive) in experiment [16]; 0.566 µM (active) in [8]; 2.93 µM (inactive) in experiment [9]; 3.43 µM (inactive) in experiment [10]; 2.22 µM (inactive) in experiment [11]. The GI50 is 4.16 µM (inactive) in [12], 0.452 µM (active) in [13], 2.06 µM (inactive) in experiment [17] and 2.41 µM (inactive) in experiment [15].

With `O=C(O)c1ccccc1C(=O)c1ccco1`, the GI50 in [1], in experiment [3], in [4], in [5], in [6] and in experiment [7] was > 100 µM (inactive) each time. The GI50 in experiment [16], in experiment [8], in experiment [9], in experiment [10], in experiment [11] and in experiment [12] was > 100 µM (inactive) in each case. The GI50 in experiment [13], in experiment [14], in [17] and in experiment [15] was > 100 µM (inactive) throughout.

For the molecule `O=S(=O)(N/N=C/c1cccc(Cl)c1Cl)c1ccccc1`, the GI50 was 39.9 µM (inactive) in experiment [1]; > 100 µM (inactive) in experiment [2]; 90.4 µM (inactive) in [3]; > 100 µM (inactive) in experiment [4]; 62.2 µM (inactive) in experiment [5]; > 100 µM (inactive) in [7]. Moreover, the GI50 is > 100 µM (inactive) in experiment [16]; 78.2 µM (inactive) in experiment [8]; 35.5 µM (inactive) in experiment [9]; 22.6 µM (inactive) in experiment [10]; > 100 µM (inactive) in [11]; > 100 µM (inactive) in [12]. The GI50 is 93.8 µM (inactive) in experiment [13], 48 µM (inactive) in experiment [14], 69.3 µM (inactive) in [17] and > 100 µM (inactive) in experiment [15].

Take `CC1(Sc2ccccc2)CN(Cc2ccccc2)C1=O` (centres undefined): the GI50 in experiment [1] is 60.4 µM (inactive); in [2] it was > 100 µM (inactive); in [3], > 100 µM (inactive); in [4] it was > 100 µM (inactive); in experiment [5] it was 77.8 µM (inactive); in [6], > 100 µM (inactive). For the same molecule, the GI50 in experiment [7], in experiment [8], in experiment [9], in [10], in experiment [11] and in experiment [12] was > 100 µM (inactive) throughout. For the same molecule, the GI50 in experiment [13] is > 100 µM (inactive); in experiment [14] it was 54.5 µM (inactive); in experiment [15] it was > 100 µM (inactive).
